This assay concerns the target T1, Von Hippel-Lindau (VHL) (Homo sapiens, UniProt P40337).
T1 construct: human recombinant VHL:ElonginB:ElonginC (VBC) complex; with ElonginB, ElonginC
Nature of the assay: fluorescence-based protein thermal shift assay of purified VBC ([…] VH298, positive control, shift ca. […] °C). It counts as binding. The conditions noted are these: read-out: fluorescence-based protein thermal shift assay of purified VBC (100 μM VH298, po).

The values that follow come from PMC8184911, “A small molecule HIF-1α stabilizer that accelerates diabetic wound healing” (Nature Communications, 2021).

T1 sequence (P40337 whole entry): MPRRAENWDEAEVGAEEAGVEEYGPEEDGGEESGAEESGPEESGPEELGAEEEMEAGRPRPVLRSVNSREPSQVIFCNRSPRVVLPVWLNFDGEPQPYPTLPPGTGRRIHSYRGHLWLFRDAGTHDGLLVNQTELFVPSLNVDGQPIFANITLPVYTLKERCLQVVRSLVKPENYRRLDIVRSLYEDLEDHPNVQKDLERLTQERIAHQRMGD
T1 sequence (Q15370 whole entry partner): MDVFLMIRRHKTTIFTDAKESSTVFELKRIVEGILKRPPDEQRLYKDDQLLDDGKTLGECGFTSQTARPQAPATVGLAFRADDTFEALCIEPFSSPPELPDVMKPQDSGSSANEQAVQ
T1 sequence (Q15369 whole entry partner): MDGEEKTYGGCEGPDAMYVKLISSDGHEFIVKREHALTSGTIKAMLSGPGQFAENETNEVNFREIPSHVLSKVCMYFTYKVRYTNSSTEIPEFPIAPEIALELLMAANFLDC

Regarding `Cc1ncsc1-c1ccc(CNC(=O)[C@@H]2C[C@@H](O)CN2C(=O)[C@@H](NC(=O)C2(C#N)CC2)C(C)(C)C)cc1` [VH298, (2 S, 4 R)-1-((S)-2-(1-cyanocyclopropanecarboxamido)-3,3-dimethylbutanoyl)-4-hydroxy-N-(4-(4-methylthiazol-5-yl)benzyl) pyrrolidine-2-carboxamide], the ΔTm at 100 µM was roughly 5 °C.
